Data as given in patent US20240150293A1, “SPIROCYCLOHEXANE DERIVATIVES, PHARMACEUTICAL COMPOSITIONS CONTAINING THEM AND THEIR USES AS ANTI-APOPTOTIC INHIBITORS” (LES LABORATOIRES SERVIER, priority 2021, published 2024).
pKi: −log10 of the molar value.

Target: Mcl-1 protein (UniProtKB Q07820) (Homo sapiens (Human), UniProt Q07820)
Test: Inhibition of Mcl-1 by the fluorescence polarisation assay (Example A, Method A)
Type: binding
Details: fluorescence polarization assay
Procedure, shortened: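 Protein (5 nM) and fluorescein-tagged peptide tracer (1 nM) incubated with 11-point compound series for 2 h at room temperature in HEPES/NaCl/Tween 20 buffer, pH 7.4, 5% DMSO. Displacement read as decrease in polarisation; IC50 fitted by 4-parameter logistic, converted to Ki (cKi or eKi).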

Mcl-1 protein, sequence (Q07820 whole entry): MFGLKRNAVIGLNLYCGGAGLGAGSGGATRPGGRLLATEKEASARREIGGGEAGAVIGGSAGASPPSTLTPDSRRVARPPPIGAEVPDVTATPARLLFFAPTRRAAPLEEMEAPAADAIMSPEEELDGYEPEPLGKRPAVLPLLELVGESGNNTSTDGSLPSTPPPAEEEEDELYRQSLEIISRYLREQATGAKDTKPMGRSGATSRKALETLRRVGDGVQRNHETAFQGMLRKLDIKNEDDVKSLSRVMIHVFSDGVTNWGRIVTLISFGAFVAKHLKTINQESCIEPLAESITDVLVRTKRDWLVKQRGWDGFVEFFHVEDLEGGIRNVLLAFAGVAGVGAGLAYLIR

Compound | pKi
COc1cc(OC)cc(C2=Cc3ccccc3C23CCC(Nc2cccc(Br)c2)(C(=O)O)CC3)c1 (single isomer, unassigned) [Example 237, 4-(3-bromoanilino)-2′-(3,5-dimethoxyphenyl)spiro[cyclohexane-1,1′-indene]-4-carboxylic acid] | 4.05
O=C(O)[C@]1(Nc2cccc(Cl)c2)CC[C@]2(CC1)C(CCOc1ccccc1)=Cc1ccccc12 [Example 171, (1r,4r)-4-(3-chloroanilino)-2′-(2-phenoxyethyl)spiro[cyclohexane-1,1′-indene]-4-carboxylic acid] | 7.29
O=C(O)[C@]1(Nc2cccc(Cl)c2)CC[C@]2(CC1)C(C1CCC1)=Cc1ccccc12 [Example 96, (1r,4r)-4-(3-chloroanilino)-2′-cyclobutylspiro[cyclohexane-1,1′-indene]-4-carboxylic acid] | 5.35
COc1cc2c(cc1OC)[C@]1(CC[C@@](Nc3cccc(Cl)c3)(C(=O)O)CC1)C(Br)=C2 [Example 136, (1s,4s)-2′-bromo-4-(3-chloroanilino)-5′,6′-dimethoxyspiro[cyclohexane-1,1′-indene]-4-carboxylic acid] | 6.59
O=C(O)C1(Nc2cccc(Cl)c2)CCC2(CC1)c1ccccc1CC2c1ccc(OCc2cccnc2)cc1 (centres unmarked) [Example 368, (1r,4r)-4-(3-chloroanilino)-2′-{4-[(pyridin-3-yl)methoxy]phenyl}-2′,3′-dihydrospiro[cyclohexane-1,1′-indene]-4-carboxylic acid] | 5.88
Cc1cccc(C2=Cc3ccccc3[C@]23CC[C@@](Nc2cccc(Cl)c2)(C(=O)O)CC3)c1 [Example 335, (1s,4s)-4-(3-chloroanilino)-2′-(3-methylphenyl)spiro[cyclohexane-1,1′-indene]-4-carboxylic acid] | 6.05
O=C(O)[C@]1(Nc2cccc(Cl)c2)CC[C@]2(CC1)C(COCc1ccccc1)=Cc1ccccc12 [Example 179, (1s,4s)-2′-[(benzyloxy)methyl]-4-(3-chloroanilino)spiro[cyclohexane-1,1′-indene]-4-carboxylic acid] | 6.30
COc1cccc(Cl)c1C1=Cc2ccccc2[C@]12CC[C@@](Nc1cccc(Cl)c1)(C(=O)O)CC2 [Example 250, (1s,4s)-4-(3-chloroanilino)-2′-(2-chloro-6-methoxyphenyl)spiro[cyclohexane-1,1′-indene]-4-carboxylic acid] | 4.86
Cc1ccc(C2Cc3ccccc3[C@]23CC[C@@](Nc2cccc(Cl)c2)(C(=O)O)CC3)cc1 (single isomer, unassigned) [Example 306, (1r,4r)-4-(3-chloroanilino)-2′-(4-methylphenyl)-2′,3′-dihydrospiro[cyclohexane-1,1′-indene]-4-carboxylic acid] | 6.18
O=C(NCc1ccccc1)C1=Cc2ccccc2[C@]12CC[C@@](Nc1cccc(Cl)c1)(C(=O)O)CC2 [Example 180, (1s,4s)-2′-(benzylcarbamoyl)-4-(3-chloroanilino)spiro[cyclohexane-1,1′-indene]-4-carboxylic acid] | 4.89
COc1cccc(Cl)c1C1Cc2ccccc2[C@]12CC[C@@](Nc1cccc(Cl)c1)(C(=O)O)CC2 (mixture of isomers) [Example 283, (1r,4r)-4-(3-chloroanilino)-2′-(2-chloro-6-methoxyphenyl)-2′,3′-dihydrospiro[cyclohexane-1,1′-indene]-4-carboxylic acid] | 5.38
COc1ccc(C2Cc3ccccc3[C@]23CC[C@@](Nc2cccc(Cl)c2)(C(=O)O)CC3)cc1C (single isomer, unassigned) [Example 242, (1r,4r)-4-(3-chloroanilino)-2′-(4-methoxy-3-methylphenyl)-2′,3′-dihydrospiro[cyclohexane-1,1′-indene]-4-carboxylic acid] | 5.92
Cc1cc(C2Cc3ccccc3C23CCC(Nc2cccc(Br)c2)(C(=O)O)CC3)cs1 (centres unmarked) [Example 232, 4-(3-bromoanilino)-2′-(5-methylthiophen-3-yl)-2′,3′-dihydrospiro[cyclohexane-1,1′-indene]-4-carboxylic acid] | 6.24
O=C(NCCc1ccccc1)C1Cc2ccccc2[C@]12CC[C@@](Nc1cccc(Cl)c1)(C(=O)O)CC2 (single isomer, unassigned) [Example 406, (1r,4r)-4-(3-chloroanilino)-2′-[(2-phenylethyl)carbamoyl]-2′,3′-dihydrospiro[cyclohexane-1,1′-indene]-4-carboxylic acid] | 5.21
Cn1ccc(OCCCC2Cc3ccccc3[C@]23CC[C@@](Nc2cccc(Cl)c2)(C(=O)O)CC3)cc1=O (some centres unmarked) [Example 479, (1r,4r)-4-(3-chloroanilino)-2′-{3-[(1-methyl-2-oxo-1,2-dihydropyridin-4-yl)oxy]propyl}-2′,3′-dihydrospiro[cyclohexane-1,1′-indene]-4-carboxylic acid] | 6.09
CC[C@H](COc1ccccc1)C[C@H]1Cc2ccccc2[C@]12CC[C@@](Nc1cccc(Cl)c1)(C(=O)O)CC2 [Example 541, (1r,2′S,4S)-4-(3-chloroanilino)-2′-[(2S)-2-(phenoxymethyl)butyl]-2′,3′-dihydrospiro[cyclohexane-1,1′-indene]-4-carboxylic acid] | 5.93
O=C(O)[C@]1(Nc2cccc(Cl)c2)CC[C@@]2(CC1)c1ccccc1CC2CCCS(=O)(=O)c1ccccc1 (some centres unmarked) [Example 398, (1r,4r)-2′-[3-(benzenesulfonyl)propyl]-4-(3-chloroanilino)-2′,3′-dihydrospiro[cyclohexane-1,1′-indene]-4-carboxylic acid] | 5.88
CN1c2ccc(Br)cc2[C@]2(CC[C@](Nc3cccc(Br)c3)(C(=O)O)CC2)C1=O [Example 6, (1r,4r)-5′-bromo-4-(3-bromoanilino)-1′-methyl-2′-oxo-1′,2′-dihydrospiro[cyclohexane-1,3′-indole]-4-carboxylic acid] | 5.00
O=C(O)[C@]1(Nc2cccc(O)c2)CC[C@]2(CC1)C(Br)=Cc1ccccc12 [Example 84, (1s,4s)-2′-bromo-4-(3-hydroxyanilino)spiro[cyclohexane-1,1′-indene]-4-carboxylic acid] | 5.14
COc1ccc(Cl)c(C2Cc3ccccc3[C@]23CC[C@@](Nc2ccccc2)(C(=O)O)CC3)c1 (single isomer, unassigned) [Example 260, (1r,4r)-4-anilino-2′-(2-chloro-5-methoxyphenyl)-2′,3′-dihydrospiro[cyclohexane-1,1′-indene]-4-carboxylic acid] | 4.05
O=C(O)[C@]1(Nc2cccc(Br)c2)CC[C@@]2(CC1)c1ccccc1CC2CCc1cccc2[nH]ccc12 (some centres unmarked) [Example 163, (1r,4r)-4-(3-bromoanilino)-2′-[2-(1H-indol-4-yl)ethyl]-2′,3′-dihydrospiro[cyclohexane-1,1′-indene]-4-carboxylic acid] | 6.17
O=C(O)[C@]1(Nc2cccc(Cl)c2)CC[C@@]2(CC1)c1ccccc1CC2CCCOc1ccccc1 (some centres unmarked) [Example 424, (1r,4r)-4-(3-chloroanilino)-2′-(3-phenoxypropyl)-2′,3′-dihydrospiro[cyclohexane-1,1′-indene]-4-carboxylic acid] | 6.74
O=C(O)[C@]1(Nc2cccc(Cl)c2)CC[C@@]2(CC1)c1ccccc1CC2C1CCCC1 (single isomer, unassigned) [Example 91, (1r,4r)-4-(3-chloroanilino)-2′-cyclopentyl-2′,3′-dihydrospiro[cyclohexane-1,1′-indene]-4-carboxylic acid] | 5.84
